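Growth conditions: 96-well plates. Treatment: test compound, 48 hours, 5 concentrations. Analysis: linear interpolation between bracketing concentrations; unreached endpoints set to highest concentration. Definition used: TGI = concentration required for complete inhibition of growth.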
Key:
Experiment in all cases: inhibition of tumour cell growth, NCI panel, 48 h
ACHN renal = test system: ACHN renal
CAKI-1 renal = test system: CAKI-1 renal
HCT-116 colon = test system: HCT-116 colon
HCT-15 colon = test system: HCT-15 colon
IGROV1 ovarian = test system: IGROV1 ovarian
LOX IMVI melanoma = test system: LOX IMVI melanoma
MOLT-4 leukemia = test system: MOLT-4 leukemia
NCI-H226 lung = test system: NCI-H226 lung
NCI-H522 lung = test system: NCI-H522 lung
OVCAR-4 ovarian = test system: OVCAR-4 ovarian
OVCAR-5 ovarian = test system: OVCAR-5 ovarian
SF-295 CNS = test system: SF-295 CNS
SK-MEL-28 melanoma = test system: SK-MEL-28 melanoma
SN12C renal = test system: SN12C renal
SNB-75 CNS = test system: SNB-75 CNS
SR leukemia = test system: SR leukemia
UACC-62 melanoma = test system: UACC-62 melanoma
DU-145 prostate = test system: DU-145 prostate
EKVX NSCLC = test system: EKVX NSCLC
NCI/ADR-RES ovarian = test system: NCI/ADR-RES ovarian

Compound	TGI (ACHN renal) [µM]	TGI (CAKI-1 renal) [µM]	TGI (HCT-116 colon) [µM]	TGI (HCT-15 colon) [µM]	TGI (IGROV1 ovarian) [µM]	TGI (LOX IMVI melanoma) [µM]	TGI (MOLT-4 leukemia) [µM]	TGI (NCI-H226 lung) [µM]	TGI (NCI-H522 lung) [µM]	TGI (OVCAR-4 ovarian) [µM]	TGI (OVCAR-5 ovarian) [µM]	TGI (SF-295 CNS) [µM]	TGI (SK-MEL-28 melanoma) [µM]	TGI (SN12C renal) [µM]	TGI (SNB-75 CNS) [µM]	TGI (SR leukemia) [µM]	TGI (UACC-62 melanoma) [µM]	TGI (DU-145 prostate) [µM]	TGI (EKVX NSCLC) [µM]	TGI (NCI/ADR-RES ovarian) [µM]
O=[N+]([O-])c1c(C=Nc2ccccc2)oc(-c2ccc3c(c2)OCO3)c1-c1ccc2c(c1)OCO2	> 100	> 100	> 100	> 100	> 100	> 100	> 100	> 100	> 100	> 100	> 100	> 100	> 100	> 100	> 100	> 100	> 100	–	–	–
CC(=O)N1CC(=O)N2C(=O)/C(=C/c3ccc(Cl)cc3)N=C12	> 100	> 100	> 100	> 100	–	> 100	> 100	> 100	–	> 100	> 100	> 100	> 100	> 100	> 100	–	> 100	> 100	> 100	> 100
COc1ccc(C=C(c2ccc(OCc3ccccc3)cc2)c2ccc(OCc3ccccc3)cc2)cc1	> 100	> 100	–	> 100	> 100	> 100	–	> 100	> 100	> 100	> 100	> 100	> 100	> 100	> 100	> 100	> 100	–	> 100	–
CNC(=O)CN(C)C(=O)CCC(=O)N(C)C	> 100	> 100	> 100	> 100	> 100	> 100	> 100	> 100	> 100	–	> 100	> 100	> 100	> 100	> 100	–	> 100	> 100	> 100	> 100
CC(=O)O[C@H]1CCC2[C@@H]3CCC4Cc5nc6c(nc5C[C@]4(C)C3CC[C@@]21C)CC1CC[C@@H]2C(CC[C@@]3(C)C2CC[C@@H]3C(C)CCCC(C)C)[C@@]1(C)C6 (stereo partly specified)	> 100	–	> 100	> 100	> 100	> 100	> 100	> 100	–	> 100	> 100	> 100	> 100	> 100	> 100	–	> 100	> 100	> 100	> 100
NC(N)=NS(=O)(=O)c1ccc(Nc2c3ccccc3nc3c(C(=O)Nc4ccc(S(N)(=O)=O)cc4)ccc(Cl)c23)cc1	> 100	> 100	> 100	> 100	> 100	> 100	> 100	> 100	> 100	> 100	> 100	> 100	> 100	> 100	> 100	> 100	> 100	–	> 100	–
N#CCC(=O)N/N=C(\C(=O)Nc1ccc(Cl)c(Cl)c1)C1CN(c2ccccc2)N=C1N (stereo unspecified)	> 100	–	> 100	> 100	> 100	> 100	> 100	> 100	> 100	> 100	> 100	> 100	> 100	> 100	> 100	> 100	> 100	–	> 100	–
COC(=O)CSC(=S)Nc1nnc(NC(=S)SCOC(C)=O)n1C(=S)SCC(=O)OC	> 100	> 100	> 100	> 100	> 100	> 100	> 100	–	–	> 100	> 100	> 100	> 100	> 100	–	> 100	> 100	> 100	> 100	> 100
Cn1/c(=N\N=C(\CNCCO)[C@@H](O)[C@@H]2OC(c3ccccc3)OC[C@H]2O)sc2ccccc21 (stereo partly specified)	44	38.6	29.5	54.6	35	31	33.6	–	32.7	52.8	40.3	33.9	33.2	35.2	32.3	41	31.2	35.1	33.2	> 100
COC(=O)/C=C\C(C#N)(C#N)N=Cc1ccc(Br)s1	6.1	5.94	34.8	6.63	31.9	7.39	> 100	12.4	3.33	16.3	31.5	33	33.7	35.1	29.4	–	24.9	24.5	26.4	45.2
CCOC(=O)c1ccc(NC(=O)SCCC(=O)O)cc1	> 100	–	> 100	> 100	> 100	> 100	> 100	> 100	–	–	> 100	> 100	> 100	> 100	23.1	> 100	> 100	–	> 100	–
Cc1ccc(-c2nc(-c3cnccn3)n(C3OC(CO)C(O)C(O)C3O)n2)cc1 (stereo unspecified)	–	–	> 100	> 100	> 100	> 100	> 100	–	> 100	> 100	> 100	> 100	> 100	> 100	> 100	> 100	> 100	> 100	> 100	> 100
Cc1nc2ccccc2c(=O)n1NC(=S)Nc1ccc(Cl)cc1[N+](=O)[O-]	> 100	> 100	> 100	> 100	> 100	–	> 100	–	> 100	> 100	> 100	> 100	> 100	> 100	> 100	> 100	> 100	> 100	> 100	> 100
CC(=O)OCC(OC(C)=O)C(OC(C)=O)C(OC(C)=O)C(C=NN(C(C)=O)S(=O)(=O)c1ccc(/C=C2\NC(=O)NC2=O)cc1)OC(C)=O (stereo unspecified)	> 100	> 100	> 100	> 100	> 100	> 100	> 100	> 100	> 100	> 100	> 100	> 100	–	> 100	> 100	–	> 100	> 100	> 100	> 100
Cc1nc(C(N)=S)sc1C(=O)CC(=O)C(=O)Nc1nc2ccccc2[nH]1	> 100	> 100	> 100	> 100	> 100	> 100	> 100	> 100	> 100	> 100	> 100	> 100	> 100	> 100	> 100	> 100	> 100	–	> 100	> 100
O[C@@H]1C[C@H]2N3CC[C@@]2(c2cc4c(cc2C3)OCO4)[C@H]2O[C@@H]12	> 100	> 100	> 100	> 100	> 100	> 100	> 100	0.0792	> 100	> 100	> 100	> 100	> 100	> 100	> 100	–	> 100	> 100	> 100	> 100
CCOC(=O)C1=CC(C)(C(=O)OCC)Nc2c(nc(OC)[nH]c2=O)N1 (stereo unspecified)	> 10	> 10	> 10	> 10	> 10	> 10	> 10	> 10	> 10	> 10	> 10	> 10	> 10	> 10	> 10	–	–	> 10	> 10	> 10
COc1ccccc1/C=C1\CCC(CCN2CCOCC2)C1=O (stereo unspecified)	> 100	> 100	> 100	> 100	> 100	> 100	> 100	> 100	–	> 100	> 100	> 100	> 100	> 100	> 100	> 100	> 100	–	> 100	–
COc1cc(/C=C2\C(=O)N(C(=O)c3ccc(NC(C)=O)cc3)N=C2C)ccc1O	> 100	> 100	> 100	–	–	> 100	> 100	> 100	> 100	> 100	> 100	> 100	> 100	> 100	> 100	> 100	–	–	> 100	–
CCOC(=O)c1ccc(Nc2nc3ccccc3nc2C(=O)OCC)cc1	> 100	> 100	> 100	> 100	> 100	–	> 100	–	> 100	> 100	> 100	–	> 100	> 100	> 100	> 100	> 100	> 100	> 100	> 100
CC(=O)c1cccc(NC(=O)C(=O)Nn2c(N)nnc2N)c1	> 100	> 100	> 100	> 100	> 100	> 100	> 100	> 100	> 100	> 100	> 100	> 100	> 100	> 100	> 100	> 100	> 100	–	> 100	–
COc1ccc2[nH]cc(CCNC(=O)[C@](O)(Cc3cn(C)c4ccccc34)[C@@]3(O)OCC(O)C3O)c2c1 (stereo partly specified)	> 100	> 100	> 100	> 100	> 100	> 100	> 100	> 100	> 100	> 100	> 100	> 100	> 100	> 100	> 100	> 100	> 100	–	> 100	–
CC(C)SC(NC(=O)C1C(C)(C)CCC1(C)C)C(=O)O (stereo unspecified)	> 100	–	> 100	> 100	> 100	> 100	–	> 100	–	–	> 100	–	> 100	> 100	> 100	–	> 100	> 100	> 100	> 100
Cc1ccc(/C=C2\Cc3cccc(C)c3C2=O)c(C(=O)O)c1	88.1	48.8	> 100	> 100	> 100	> 100	> 100	> 100	60.8	52.9	> 100	> 100	> 100	> 100	> 100	> 100	–	> 100	> 100	–
CCCCCCCC(=O)OCC1OC(OC)C(NC(=O)N(CCCl)N=O)C(O)C1O (stereo unspecified)	> 100	32.6	15	15.5	67.1	23.8	36.1	42.1	16	> 100	97.5	33	> 100	26.6	53.3	23.9	14	–	> 83.9	–
CC(C)=CCN1c2ccc(Cl)cc2NC(=O)CC1C (stereo unspecified)	58.3	43.8	38	> 100	62.4	33.2	> 100	46.9	47.4	87.9	> 100	> 100	> 100	58	–	> 100	–	> 100	83.5	–

— PubChem BioAssay (NCI)
